Experimental data reported in publication PMC6112376, “Comprehensive Analyses and Prioritization of Tox21 10K Chemicals Affecting Mitochondrial Function by in-Depth Mechanistic Studies” (Environmental Health Perspectives, 2018).
Where two headings read alike, the source gives them in different places.

How the values were obtained:
[1] = system: rat primary hepatocytes; experiment: MMP assay in rat primary hepatocytes; conditions: for IC50: read-out: MMP assays IC50 (µM) Rat Hepatocytes
[2] = system: HepG2 cells; conditions: cited from earlier work
[3] = system: HepG2 cells; conditions: for IC50: read-out: MMP assays IC50 (µM) HepG2
[4] = rat hepatocytes, mean ± SD of three experiments
[5] = read-out: MMP assays IC50 (µM) qHTS-HepG2
[6] = HepG2 cells, single number from one experiment
[7] = read-out: MMP assays IC50 (µM), qHTS-HepG2

Structure (SMILES) | MMP assays efficacy (%) Rat Hepatocytes [1, 4] | IC50 [1, 4] | MMP assays efficacy (%) qHTS-HepG2 [2] | IC50 [2, 5] | MMP assays efficacy (%) HepG2 [3, 6] | IC50 [3, 6] | MMP assays IC50 (µM) Rat Hepatocytes [1, 4] | IC50 [2, 7] | MMP assays IC50 (µM) HepG2 [3, 6] | MMP assays IC50 (µM) qHTS-HepG2 [2] | IC50 [1] | MMP assays efficacy (%) HepG2 [3]
CCCCCCCCCCn1cc[n+](C)c1.O=S(=O)([O-])C(F)(F)F [1-Decyl-3-methylimidazolium trifluoromethanesulfonate] | -125±47% | 12.1 ± 3.97 µM | -57±16% | 1.67 ± 2.71 µM | -99% | 7.08 µM |  |  |  |  |  | 
Cc1cc(Nc2ccc(O)cc2)ccc1N | inactive |  | -93±15% | 7.66 ± 0.88 µM | -101% | 14.1 µM | inactive |  |  |  |  | 
O=C(O)C(=O)Cc1c[nH]c2ccccc12 [Indole-3-pyruvic acid] | -72±42% | 21.3 ± 17.9 µM | -85±21% |  | -89% | 11.2 µM |  | 28.9 ± 16.7 µM |  |  |  | 
CCC(=O)O[C@]1(C(=O)SCF)[C@H](C)C[C@H]2[C@@H]3C[C@H](F)C4=CC(=O)C=C[C@]4(C)[C@@]3(F)[C@@H](O)C[C@@]21C [Fluticasone propionate] | inactive |  | -58±17% |  | inactive |  | inactive | 9.02 ± 1.71 µM | inactive |  |  | 
Cc1cc2c(cc1C(F)(F)F)N(C(=O)Nc1ccc(Oc3cccnc3C)nc1)CC2.Cl | -98±10% | 6.15 ± 3.62 µM | -159±11% | 14.4 ± 5.99 µM | -104% | 2 µM |  |  |  |  |  | 
CCCCCCCCCCCC[N+](C)(C)Cc1ccccc1.[Br-] [Benzyldodecyldimethylammonium bromide] | -44±3% | 18.4 ± 1.5 µM | -97±11% | 11.4 ± 4.34 µM |  | 17.3 µM |  |  |  |  |  | 
C[C@H]1C[C@H]2[C@@H]3CCC4=CC(=O)C=C[C@]4(C)[C@@]3(F)[C@@H](O)C[C@]2(C)[C@@]1(O)C(=O)CCl [Clobetasol] | -64±43% | 19.8 ± 15.6 µM | -91±13% | 14.4 ± 3.67 µM | -87% | 17.3 µM |  |  |  |  |  | 
O=C(CC(=O)C(F)(F)F)c1ccccc1 [4,4,4-Trifluoro-1-phenyl-1,3-butanedione] | inactive |  | -103±7% | 20.4 ± 6.17 µM | -85% | 31.6 µM | inactive |  |  |  |  | 
Nc1cc(Cl)c([N+](=O)[O-])cc1O [Compound 2-Amino-4-chloro-5-nitrophenol] | -47±13% | 31.3 ± 8.72 µM | -104±19% | 21.5 ± 2.48 µM | -107% | 25.1 µM |  |  |  |  |  | 
Nc1nc2ccc([N+](=O)[O-])cc2s1 [Compound 2-Amino-6-nitrobenzothiazole] | -81±29% | 22.7 ± 20.4 µM | -70±17% | 12.7 ± 10.5 µM | -89% | 44.7 µM |  |  |  |  |  | 
Cc1cccc(C(C)(C)C)c1O [Phenol, 2-(1,1-dimethylethyl)-6-methyl-] | inactive |  | inactive |  | inactive |  | inactive |  | inactive | inactive |  | 
O=C(c1ccccc1)c1cccc(O)c1 [Compound 3-Hydroxybenzophenone] | inactive |  | -87±9% | 27.7 µM | -86% | 39.8 µM | inactive |  |  |  |  | 
CCC(=C(CC)c1ccc(O)cc1)c1ccc(O)cc1 [(Z,E)-Diethylstilbestrol] |  |  | -98±10% |  |  |  |  |  |  |  | 42.8 ± 10.3 µM | -104%
c1ccc2c(c1)OCC(C1=NCCN1)O2 (centres unmarked) [Idazoxan] | inactive |  | -60±9% |  | inactive |  | inactive | 20.6 ± 7.46 µM | inactive |  |  | 
CC(C)c1ccccc1O [Compound 2-Isopropylphenol] | inactive |  | inactive |  | inactive |  | inactive |  | inactive | inactive |  | 
C=C1CC[C@H](O)C/C1=C/C=C1\CCC[C@]2(C)[C@@H]([C@H](C)CC[C@@H](O)C(C)(C)O)CC[C@@H]12 [24R,25-Dihydroxyvitamin D3] | -46±4% | 17.3 µM | -111±10% | 13 ± 2.17 µM | -133% | 15.5 µM |  |  |  |  |  | 
CCCCCCCC[n+]1ccn(C)c1.F[B-](F)(F)F [1-Methyl-3-octylimidazolium tetrafluoroborate] | -76±29% | 43.4 ± 7.4 µM | -73±29% | 5.66 ± 5.82 µM | -115% | 19.9 µM |  |  |  |  |  | 
CC1C2CC(CC2C2CCCC(O)C2)C1(C)C (centres unmarked) | inactive |  | -98±23% | 31.8 ± 17.5 µM | -108% | 39.8 µM | inactive |  |  |  |  | 
Cc1nc2ccccc2s1 [Compound 2-Methylbenzothiazole] | inactive |  | inactive |  | inactive |  | inactive |  | inactive | inactive |  | 
Oc1ccc2cc(SSc3ccc4cc(O)ccc4c3)ccc2c1 [6-Hydroxy-2-naphthyl disulfide] | -68±46% | 39.8 µM | -110±7% | 33.7 ± 3.64 µM | -98% | 28.2 µM |  |  |  |  |  | 
C#C[C@]1(OC(=O)CCCCCC)CC[C@H]2[C@@H]3CCC4=CC(=O)CC[C@@H]4[C@H]3CC[C@@]21C [Noristerat] | inactive |  | -87±18% |  | -117% | 21.8 µM | inactive | 9.81 ± 1.78 µM |  |  |  | 
O=C1c2c(O)ccc(Nc3ccc(CCO)cc3)c2C(=O)c2c([N+](=O)[O-])ccc(O)c21 [C.I. Disperse blue 27] | -72±24% | 32.5 ± 10.4 µM | -86±8% | 2.34 ± 0.87 µM | -119% | 25.1 µM |  |  |  |  |  | 
CCCCCc1ccco1 [Compound 2-Pentylfuran] | inactive |  | -76±20% | 42.2 ± 2.81 µM | inactive |  | inactive |  | inactive |  |  | 
